The values that follow come from patent US20030124566A1, “5-Hydroxytryptamine transporter gene polymorphisms” (priority 2000, published 2003).

Data set [1] has as its system female human subjects with IBS (non-constipated). The data set is described as follows: Double-blind, placebo controlled clinical trials of alosetron for the treatment of IBS, response stratified by 5HTT genotype. The settings on record: for proportion of patients achieving response (relief of IBS symptoms): relief during six weeks of twelve week treatment. It is filed as in vivo. The source says:
FIG. 1 is a graph based on data collected from female patients enrolled in clinical trials of alosetron for the treatment of IBS. The study population was comprised of non-constipated individuals with IBS. The subjects were divided into 5HTT genotypes. Of the 219 subjects, 71 (32.4%) were del/del 5HTT, 75 (34.2%) were del/ins 5HTT and 73 (33.3%) were ins/ins 5HTT. […] “Response” was defined as relief of IBS symptoms (abdominal pain and discomfort) during six weeks of a twelve week treatment study. Two hundred and nineteen subjects, received either alosetron (102 subjects) or matched placebo (117 subjects). The proportion of patients achieving response following treatment with alosetron was 68% (21/31) for del/del 5HTT, 64% (21/33) for del/ins 5HTT and 58% (22/38) for ins/ins 5HTT. The proportion of patients achieving response following treatment with placebo was 58% (23/40) for del/del 5HTT, 38% (16/42) for del/ins 5HTT and 34% (12/35) for ins/ins 5HTT.
FIG. 2 compares, among 5HTT genotypes, the percentage of alosetron-treated subjects who reported constipation. Of the 102 alosetron treated subjects, the proportion of subjects reporting constipation was 13% (4/31) for del/del 5HTT, 30% (10/33) for del/ins 5HTT and 21% (8/38) for ins/ins 5HTT.
Genetic samples were obtained from 219 female human subjects enrolled in clinical trials of alosetron for the treatment of IBS. Using PCR technology as is known in the art, an insertion/deletion genetic marker was assayed in the 5-hydroxytryptamine transporter gene (5HTT gene). The alleles were labeled as “del” (deletion) or “ins” (insertion) resulting in three possible genotypes (del/del; del/ins or ins/ins).
The subjects' response to alosetron in the clinical trial setting was reviewed and correlated with genotype. In the double-blind, placebo controlled clinical trials, subjects received 12 weeks of treatment with either alosetron or a placebo. A favorable response to alosetron was when a subject reported relief of IBS symptoms during six weeks of the twelve week trial. The incidence of various other effects, including constipation, was also recorded.
The response of subjects to treatment with alosetron in the clinical trial was stratified according to genotype.
The occurrence of constipation during alosetron treatment in the clinical trial was stratified according to genotype. […] In del/del subjects (n=31), 4 (13%) reported constipation; in del/ins subjects (n=33), 10 (30%) reported constipation; and in ins/ins subjects (n=38), 8 (21)% reported constipation (FIG. 2).

Data set [2] deals with patients with Irritable Bowel Syndrome (IBS). The settings on record: double-blind, placebo controlled studies (literature); cited from earlier work.

Counter-ions that a name gives are not always drawn.

Turning to `Cc1[nH]cnc1CN1CCc2c(c3ccccc3n2C)C1=O` [alosetron, Alosetron hydrochloride], the “proportion of subjects reporting constipation” value in data set [1] (del/del 5HTT genotype, alosetron-treated, 4/31 subjects) is reported as 13%; in data set [1] (del/ins 5HTT genotype, alosetron-treated, 10/33 subjects) it was 30%; in data set [1] (ins/ins 5HTT genotype, alosetron-treated, 8/38 subjects), 21%; in data set [1] (total group of subjects receiving alosetron (n=102)) it was 21%. In addition, the “proportion of patients achieving response (relief of IBS symptoms)” value in data set [1] (del/del 5HTT genotype, 21/31 subjects) was found to be 68%; in data set [1] (del/ins 5HTT genotype, 21/33 subjects) it was 64%; in data set [1] (ins/ins 5HTT genotype, 22/38 subjects) it was 58%. The “relief of IBS symptoms compared with placebo” value in data set [1] (in each of the three 5HTT genotypes) is on record as “more effective than placebo”. Further, the “effect on pain and bowel function in IBS patients” value in data set [2] is “reduce pain and improve bowel function”.
